Values joined by “and” are separate entries in the source; they are usually repeats but may differ in a detail not shown here. Identical values can stand only once. Like-named read-outs stand apart in the source and are kept apart here.
Key:
[1] = target: BSA; settings: racemic, ref [39]; cited from earlier work
[2] = target: T1, HSA (Homo sapiens, UniProt P02768); settings: ref [43]; cited from earlier work
T1 construct: purchased Sigma-Aldrich

[3] = system: AGP; assay: UV titration (Benesi–Hildebrand) with AGP; type: binding, human; settings: n = 3, 1 μM AGP, pH 7.4 phosphate buffer, 24 °C, 278 nm; for Kd: human, pH 7.4, UV titration, read-out: logKAGP ± Stdev (logarithm of stability constant) (converted)
Procedure: (§1) The UV-Vis absorption assay is a straightforward and relatively simple method to examine the interactions between small molecules and macromolecules. Changes in the structure of the protein caused by the interacting ligand can lead to alterations in the absorption spectrum. […] Fixed wavelength measurements were conducted at the absorption maxima of AGP and HSA. […] The change in the absorbance and wavelength maximum in the UV spectra during the titration refers to the complex formation between proteins and PPIs. The Benesi–Hildebrand method was used to determine the stability constants based on Equation (7).
(§2) The absorption spectra were recorded on a Jasco V-750 spectrophotometer (Jasco, Tokyo, Japan) at 24 °C using 1.0 cm path-length quartz cuvettes. Then, 1 μM HSA and AGP were dissolved in a sodium phosphate buffer solution (pH 7.4; 0.1 M) and their concentration was kept constant. The PPIs were dissolved in DMSO, and further diluted with the AGP or HSA solution. Next, 1000 μL of 1 μM HSA and AGP solutions was titrated with the PPI stock solution in 1 μL steps. The concentration of the PPIs was set to 4.00, 7.98, 11.96, 15.94, 19.90, 23.86, 27.81, and 31.75 μM. The binding constants were determined using the Benesi–Hildebrand equation:(7) A0/A−A0=εPPI/εAPPI−εPPI+εPPI/εAPPI−εPPI×1/K×[C] where A0 is the absorbance of the HSA or AGP at 278 nm, A is the absorbance of the formed complex also at 278 nm, εPPI is the extinction coefficient of the actual PPI, εAPPI is the extinction coefficient of the albumin or AGP and PPI complex, K is the binding coefficient, and [C] is the concentration of the investigated PPI. The plot of A0/A − A0 versus C^−1 has a slope of K^−1. All experiments were performed in triplicate.

[4] = target: human serum albumin (HSA) (Homo sapiens, UniProt P02768); assay: Bound percentage by HPLC on HSA column, extrapolation to zero organic modifier; type: in vitro ADME; settings: for Bound percentage (b%), average: average of IPA, EtOH, MeOH
Chain of human serum albumin (HSA) (P02768 25-609): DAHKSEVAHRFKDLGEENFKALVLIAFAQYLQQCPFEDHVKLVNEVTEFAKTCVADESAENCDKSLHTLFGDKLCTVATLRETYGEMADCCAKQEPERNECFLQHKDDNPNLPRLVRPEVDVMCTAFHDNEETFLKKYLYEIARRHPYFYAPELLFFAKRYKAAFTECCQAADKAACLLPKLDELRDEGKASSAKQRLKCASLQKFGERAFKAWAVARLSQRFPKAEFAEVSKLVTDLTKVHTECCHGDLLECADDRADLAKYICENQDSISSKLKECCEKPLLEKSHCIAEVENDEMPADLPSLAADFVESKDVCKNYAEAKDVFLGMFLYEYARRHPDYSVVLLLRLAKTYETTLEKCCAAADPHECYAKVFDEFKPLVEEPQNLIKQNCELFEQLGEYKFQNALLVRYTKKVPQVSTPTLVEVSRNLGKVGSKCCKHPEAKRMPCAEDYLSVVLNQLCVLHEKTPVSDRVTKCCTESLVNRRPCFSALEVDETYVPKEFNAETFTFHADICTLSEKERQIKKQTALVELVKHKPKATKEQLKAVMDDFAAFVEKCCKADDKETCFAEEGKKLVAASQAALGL
Procedure: (§3) Chromatographic columns containing proteins can be used to determine the percentage of drug binding. A plot of the natural logarithm of the retention factors against the proportion of organic modifiers was created. […] The intercept of these linear equations can be used to calculate the bound percentage according to Equation (4) (see in Section 3.2).
(§4) Chromatographic measurements were carried out on two separate HPLC systems. The AGP binding study was performed on a Waters 2695e chromatographic system paired with a Waters 2996 PDA detector, controlled by Empower 3 FR5 (Waters Corp., Milford, MA, USA), while the HSA binding study was performed on an Agilent 1100 HPLC system, consisting of an inline degasser (G1322A), a quaternary pump (G1311A), an automatic injector (G1329A) paired with sample thermostat (G1330A), a column thermostat (G1316A), and a diode array detector (G1315A) with Agilent Chemstation B04.03-SP2 software (Agilent, Bronnwald, Germany). For the binding studies, two protein-based chiral stationary phases were utilized. The chromatographic binding study for AGP was conducted on a ChromTech Chiral-AGP column (150 mm × 4.0 mm; ChromTech Ltd., Congleton, UK), while the binding study for HSA was performed on a Daicel Chiralpak HSA column (50 mm × 4.0 mm; Daicel Corp., Osaka, Japan). The detection wavelength was 210 nm for all measurements. The stock solutions of PPIs were prepared at a concentration of 1 mg/mL in MeOH. Subsequent dilutions were prepared using water. The injected samples were mixed and diluted from the stock solutions. The final concentration for the eutomer was 0.2 mg/mL, and for the distomer, it was 0.1 mg/mL. A volume of 2 μL was injected. To mitigate the instability of PPIs in aqueous solutions, the samples were kept at a temperature of 4 °C. Cooling the samples to 4 °C prevented significant decomposition for a period of 24 h. After 24 h, new samples were prepared for injection. Chromatographic parameters were calculated based on the following equations. The retention factor (k) was calculated as:(1) k=(tr−t0)/t0 where tr is the retention time of the investigated analyte, and t0 is the dead time, determined as the first peak appearance in the chromatogram. Resolution was calculated based on the following equation:(2) Rs=2(t2−t1)/(w1+w2) where t2 and t1 are the retention times of the second and first eluted enantiomers, respectively, while w is the peak width. The separation factor (α) was calculated as follows:(3) α=k2/k1 where k1 and k2 are the retention factors of the first- and second-eluting enantiomers, respectively. The k values were also used to calculate the protein-bound percentage (b%) using Equation (4):(4) b%=k/1+k×100

[5] = target: T1, HSA; assay: UV titration (Benesi–Hildebrand) with HSA; type: binding; settings: n = 3, 1 μM HSA, pH 7.4 phosphate buffer, 24 °C, 278 nm, read-out: logKHSA ± Stdev. (logarithm of stability constant) (converted)
Procedure: as §1, §2

[6] = system: α1-acid glycoprotein (AGP); assay: Bound percentage by HPLC on AGP column, extrapolation to zero organic modifier; type: in vitro ADME, human; settings: for Bound percentage (b%), average: average of IPA, EtOH, MeOH
Procedure: as §3
as §4, with “Cooling the samples to 4 °C prevented significant decomposition for a period of 24 h.” left out

[7] = target: T1, HSA; settings: ref [41]; cited from earlier work
[8] = extrapolation to zero percent EtOH
[9] = extrapolation to zero percent IPA
[10] = extrapolation to zero percent MeOH

T1 sequence (P02768 25-609): as above

SMILES	logK [1]	logK [2]	Kd [3] [µM]	Bound percentage (b%), average [4]	Bound percentage (b%) [4, 8] [%]	Bound percentage (b%) [4, 9] [%]	Bound percentage (b%) [4, 10] [%]	Kd [5] [µM]	logKAGP ± Stdev (logarithm of stability constant) ([3]; UV titration)	Bound percentage (b%), average [6]	Bound percentage (b%) [6, 8] [%]	Bound percentage (b%) [6, 9] [%]	Bound percentage (b%) [6, 10] [%]	logK [7]
COc1ccnc(C[S+]([O-])c2nc3cc(-n4cccc4)ccc3[nH]2)c1C (centres unmarked) [Ilaprazole]	5.63	–	–	–	–	–	–	–	–	–	–	–	–	–
COc1ccnc(C[S+]([O-])c2nc3ccc(OC(F)F)cc3[nH]2)c1OC (centres unmarked) [Pantoprazole]	5.04	–	–	–	–	–	–	–	–	–	–	–	–	–
COc1ccc2[nH]c([S@+]([O-])Cc3ncc(C)c(OC)c3C)nc2c1 [R-omeprazole]	–	3.50	20.4	91.76% and 91.76 ± 1.08%	92.97	91.15	91.03	33.9	–	–	–	–	–	–
COCCCOc1ccnc(C[S@@+]([O-])c2nc3ccccc3[nH]2)c1C [R-rabeprazole, dexrabeprazole]	–	–	31.6	88.84% and 88.84 ± 0.59%	88.85	88.24	89.42	46.8	4.59 ± 0.03	96.78% and 96.78 ± 1.77%	96.69	98.60	95.07	–
COc1ccc2nc([S@@+]([O-])Cc3ncc(C)c(OC)c3C)[nH]c2c1 [S-omeprazole, esomeprazole]	–	3.73	33.9	91.76% and 91.76 ± 1.08%	92.97	91.15	91.03	95.5	–	–	–	–	–	4.70
COCCCOc1ccnc(C[S@+]([O-])c2nc3ccccc3[nH]2)c1C [S-rabeprazole]	–	–	17.4	88.84% and 88.84 ± 0.59%	88.85	88.24	89.42	38	–	97.98% and 97.98 ± 1.51%	98.17	99.39	96.39	–

— PMC11477000, “Enantioselective Binding of Proton Pump Inhibitors to Alpha1-Acid Glycoprotein and Human Serum Albumin—A Chromatographic, Spectroscopic, and In Silico Study” (International Journal of Molecular Sciences, 2024)
